Measured values as given in patent US12091411B2, “IRAK degraders and uses thereof” (Kymera Therapeutics, Inc., priority 2022, dated 2024).
Where two headings read alike, the source gives them in different places.

Target: T1, IRAK4 (Homo sapiens, UniProt Q9NWZ3)
T1 construct: Degradation of IRAK4 in OCI-LY10 was quantitatively measured using Meso Scale Discovery technology; endogenous in cells; host or cells: OCI-LY10
T1 sequence (Q9NWZ3 1-460): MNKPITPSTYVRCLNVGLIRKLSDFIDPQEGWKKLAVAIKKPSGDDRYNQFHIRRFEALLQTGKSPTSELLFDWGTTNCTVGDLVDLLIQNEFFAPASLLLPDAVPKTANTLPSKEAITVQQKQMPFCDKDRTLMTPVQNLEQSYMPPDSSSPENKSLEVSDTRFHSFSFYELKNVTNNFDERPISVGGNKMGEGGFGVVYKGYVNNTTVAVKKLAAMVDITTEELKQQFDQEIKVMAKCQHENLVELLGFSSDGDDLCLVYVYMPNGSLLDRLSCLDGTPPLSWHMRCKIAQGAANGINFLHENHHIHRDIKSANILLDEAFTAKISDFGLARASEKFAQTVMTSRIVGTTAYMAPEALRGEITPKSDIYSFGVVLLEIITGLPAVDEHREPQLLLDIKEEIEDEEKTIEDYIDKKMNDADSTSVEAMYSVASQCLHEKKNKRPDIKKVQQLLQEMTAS
Test: IRAK4 MSD Degradation in OCI-LY10
Type: cell-based
Conditions: OCI-LY10 cells, MSD
In short: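 OCI-LY10 cells exposed to 8-point 1:3 compound series (top 1 to 10 μM) for 4 to 24 h at 37 °C, 5% CO2. Lysate IRAK4 quantified by MSD sandwich immunoassay. DC50 from three-parameter logistic fit, binned A (<0.01 μM) to D (>0.2 μM or not tested).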

[1] = 4 hrs incubation, read-out: IRAK4 degradation in OCI-LY10 at 4 hrs: DC50
[2] = 24 hrs incubation, read-out: IRAK4 degradation in OCI-LY10 at 24 hrs: DC50

| Compound | DC50 [1] | DC50 [2] |
| --- | --- | --- |
| Cn1c(=O)n(C2CCC(=O)NC2=O)c2cccc(C#CCO[C@H]3CCCN(C[C@H]4CC[C@H](n5cc(NC(=O)c6cnn7ccc(N8C[C@H]9C[C@@H]8CO9)nc67)c(C(F)F)n5)CC4)C3)c21 (stereo partly drawn) [I-128] | 10 to 100 nM | > 200 nM |
| CN1C(=O)C(C2CCC(=O)NC2=O)c2cccc(N3CCN(CC4CCC(n5cc6cc(NC(=O)c7cccc(C(F)(F)F)n7)c(S(C)(=N)=O)cc6n5)CC4)CC3)c21 (stereo not drawn) [I-129] | < 10 nM | > 200 nM |
| CC(C)(O)c1cc2nn([C@H]3CC[C@H](CN4CCC5(CC4)CC(CCNc4cccc6c4C(=O)N(C4CCC(=O)NC4=O)C6=O)C5)CC3)cc2cc1NC(=O)c1cccc(C(F)(F)F)n1 (stereo partly drawn) [I-130] | > 200 nM | 10 to 100 nM |
| COc1cc2nn([C@H]3CC[C@H](CN4CC(c5cccc6c5n(C)c(=O)n6C5CCC(=O)NC5=O)C4)CC3)cc2cc1NC(=O)c1nc(C(C)(C)F)ccc1OC (stereo partly drawn) [I-131] | > 200 nM | > 200 nM |
| COc1cc2nn([C@H]3CC[C@H](CN4CC(c5c(OC)ccc6c5n(C)c(=O)n6C5CCC(=O)NC5=O)C4)CC3)cc2cc1NC(=O)c1cccc(C(C)(C)F)n1 (stereo partly drawn) [I-132] | > 200 nM | > 200 nM |
| COc1cc2nn([C@H]3CC[C@H](CN4CC(c5cccc6c5n(C)c(=O)n6C5CCC(=O)NC5=O)C4)CC3)cc2cc1NC(=O)c1cncc(C(C)(C)F)n1 (stereo partly drawn) [I-134] | > 200 nM | > 200 nM |
| COc1cc2nn([C@H]3CC[C@H](CN4CC(c5cncc6c5n(C)c(=O)n6C5CCC(=O)NC5=O)C4)CC3)cc2cc1NC(=O)c1cccc(C(C)(C)F)n1 (stereo partly drawn) [I-135] | > 200 nM | > 200 nM |
| COc1cc2nn([C@H]3CC[C@H](CN4CC(c5cccc6c5n(C)c(=O)n6C5CCC(=O)NC5=O)C4)CC3)cc2cc1NC(=O)c1nc(C(C)(C)F)ccc1OC (stereo partly drawn) [I-136] | > 200 nM |  |
| COc1ccc(C(F)(F)F)nc1C(=O)Nc1cc2cn([C@H]3CC[C@@H](CN4CCC5(CC4)CC(CNc4cccc6c4C(=O)N(C4CCC(=O)NC4=O)C6=O)C5)CC3)nc2cc1C(C)(C)O (stereo partly drawn) [I-137] | > 200 nM | 10 to 100 nM |
| COc1cc2nn([C@H]3CC[C@H](CN4CCC5(CC4)CC(Oc4cccc6c4C(=O)N(C4CCC(=O)NC4=O)C6=O)C5)CC3)cc2cc1NC(=O)c1cccc(C(F)(F)F)n1 (stereo partly drawn) [I-138] | > 200 nM | < 10 nM |
| CC(C)(O)c1cc2nn([C@H]3CC[C@H](CNCCCCCCCNc4cccc5c4C(=O)N(C4CCC(=O)NC4=O)C5=O)CC3)cc2cc1NC(=O)c1cccc(C(F)(F)F)n1 (stereo partly drawn) [I-139] | > 200 nM | 10 to 100 nM |
| COc1cc2nn([C@H]3CC[C@H](CN4CCC5(CC4)CC(Nc4cccc6c4C(=O)N(C4CCC(=O)NC4=O)C6=O)C5)CC3)cc2cc1NC(=O)c1ccccn1 (stereo partly drawn) [I-140] | > 200 nM | 10 to 100 nM |
| COc1cc2nn([C@H]3CC[C@H](CN4CCC5(CC4)CC(N(C)c4cccc6c4C(=O)N(C4CCC(=O)NC4=O)C6=O)C5)CC3)cc2cc1NC(=O)c1cccc(C(F)(F)F)n1 (stereo partly drawn) [I-141] | > 200 nM | 10 to 100 nM |
| CC(C)(O)c1cc2nn(C3CCC(CNCCCCCNc4cccc5c4C(=O)N(C4CCC(=O)NC4=O)C5=O)CC3)cc2cc1NC(=O)c1cccc(C(F)(F)F)n1 (stereo not drawn) [I-142] | > 200 nM | < 10 nM |
| CC(C)(O)c1cc2nn([C@H]3CC[C@H](CNCCCCCCNc4cccc5c4C(=O)N(C4CCC(=O)NC4=O)C5=O)CC3)cc2cc1NC(=O)c1cccc(C(F)(F)F)n1 (stereo partly drawn) [I-143] | > 200 nM | < 10 nM |
| CC(C)(O)c1cc2nn([C@H]3CC[C@H](CNCCNc4cccc5c4C(=O)N(C4CCC(=O)NC4=O)C5=O)CC3)cc2cc1NC(=O)c1cccc(C(F)(F)F)n1 (stereo partly drawn) [I-144] | < 10 nM | < 10 nM |
| CN(CCCCNc1cccc2c1C(=O)N(C1CCC(=O)NC1=O)C2=O)C[C@H]1CC[C@H](n2cc3cc(NC(=O)c4cccc(C(F)(F)F)n4)c(C(C)(C)O)cc3n2)CC1 (stereo partly drawn) [I-145] | < 10 nM | < 10 nM |
| CC(C)(O)c1cc2nn([C@H]3CC[C@H](CNCCCNc4cccc5c4C(=O)N(C4CCC(=O)NC4=O)C5=O)CC3)cc2cc1NC(=O)c1cccc(C(F)(F)F)n1 (stereo partly drawn) [I-146] | > 200 nM | 10 to 100 nM |
| COc1cc2nn([C@H]3CC[C@H](CN4CCC5(CC4)CCN(c4cccc6c4n(C)c(=O)n6C4CCC(=O)NC4=O)CC5)CC3)cc2cc1NC(=O)c1cncc(OC(F)(F)F)c1 (stereo partly drawn) [I-147] | 100 to 200 nM | > 200 nM |

| Compound | DC50 [1] | DC50 [2] |
| --- | --- | --- |
| COc1cc2nn([C@H]3CC[C@H](CN4CCC5(CC4)CCN(c4cccc6c4n(C)c(=O)n6C4CCC(=O)NC4=O)CC5)CC3)cc2cc1NC(=O)c1cncc(OC(F)F)c1 (stereo partly drawn) [I-148] | 10 to 100 nM | > 200 nM |
| COc1cc2nn([C@H]3CC[C@H](CN4CCC5(CC4)CCN(c4cccc6c4n(C)c(=O)n6C4CCC(=O)NC4=O)CC5)CC3)cc2cc1NC(=O)c1cncc(SC)c1 (stereo partly drawn) [I-149] | < 10 nM | > 200 nM |
| COc1cc2nn([C@H]3CC[C@H](CN4CCC5(CC4)CCN(c4cccc6c4n(C)c(=O)n6C4CCC(=O)NC4=O)CC5)CC3)cc2cc1NC(=O)c1cncc([S+](C)[O-])c1 (stereo partly drawn) [I-150] | 10 to 100 nM | > 200 nM |
| COc1cc2nn([C@H]3CC[C@H](CN4CCC5(CC4)CCN(c4cccc6c4n(C)c(=O)n6C4CCC(=O)NC4=O)CC5)CC3)cc2cc1NC(=O)c1cncc(S(C)(=O)=O)c1 (stereo partly drawn) [I-151] | > 200 nM | > 200 nM |
| COc1cc2nn([C@H]3CC[C@H](CN4CCC5(CC4)CCN(c4cccc6c4n(C)c(=O)n6C4CCC(=O)NC4=O)CC5)CC3)cc2cc1NC(=O)c1cncc(SC(F)(F)F)c1 (stereo partly drawn) [I-152] | > 200 nM | > 200 nM |
| COc1cc2nn([C@H]3CC[C@H](CN4CCC5(CC4)CCN(c4cccc6c4n(C)c(=O)n6C4CCC(=O)NC4=O)CC5)CC3)cc2cc1NC(=O)c1cncc([S+]([O-])C(F)(F)F)c1 (stereo partly drawn) [I-153] | > 200 nM | > 200 nM |
| COc1cc2nn([C@H]3CC[C@H](CN4CCC5(CC4)CCN(c4cccc6c4n(C)c(=O)n6C4CCC(=O)NC4=O)CC5)CC3)cc2cc1NC(=O)c1cncc(S(=O)(=O)C(F)(F)F)c1 (stereo partly drawn) [I-154] | > 200 nM | > 200 nM |
| COc1cc2nn([C@H]3CC[C@H](CN4CCC5(CC4)CCN(c4cccc6c4n(C)c(=O)n6C4CCC(=O)NC4=O)CC5)CC3)cc2cc1NC(=O)c1cncc(C(F)(F)F)n1 (stereo partly drawn) [I-155] | < 10 nM | > 200 nM |
| COc1cc2nn([C@H]3CC[C@H](CN4CCC5(CC4)CCN(c4cccc6c4n(C)c(=O)n6C4CCC(=O)NC4=O)CC5)CC3)cc2cc1NC(=O)c1cncc(C#N)c1 (stereo partly drawn) [I-156] | > 200 nM | 10 to 100 nM |
| COc1cc2nn([C@H]3CC[C@H](CN4CCC5(CC4)CCN(c4cccc6c4n(C)c(=O)n6C4CCC(=O)NC4=O)CC5)CC3)cc2cc1NC(=O)c1nn(C)cc1Cl (stereo partly drawn) [I-157] | < 10 nM | > 200 nM |
| Cn1c(=O)n(C2CCC(=O)NC2=O)c2cccc(N3CCC(CN4CCN(C[C@H]5CC[C@H](n6cc(NC(=O)c7cnn8ccc(N9C[C@@H]%10C[C@H]9CO%10)nc78)c(C(F)F)n6)CC5)CC4)CC3)c21 (stereo partly drawn) [I-158] | < 10 nM | > 200 nM |
| Cn1c(=O)n(C2CCC(=O)NC2=O)c2cccc(N3CCC(OC4CCN(C[C@H]5CC[C@H](n6cc(NC(=O)c7cnn8ccc(N9C[C@@H]%10C[C@H]9CO%10)nc78)c(C(F)F)n6)CC5)CC4)CC3)c21 (stereo partly drawn) [I-159] | < 10 nM | > 200 nM |
| Cn1c(=O)n(C2CCC(=O)NC2=O)c2cccc(C#CCCC3CCN(CC4CCC(n5cc(NC(=O)c6cnn7ccc(C8C[C@H]9C[C@@H]8CO9)nc67)c(C(F)F)n5)CC4)CC3)c21 (stereo partly drawn) [I-160] | < 10 nM | < 10 nM |
| Cn1c(=O)n(C2CCC(=O)NC2=O)c2cccc(N3CCN(CC4CCN(C[C@H]5CC[C@H](n6cc(NC(=O)c7cnn8ccc(N9C[C@@H]%10C[C@H]9CO%10)nc78)c(C(F)F)n6)CC5)CC4)CC3)c21 (stereo partly drawn) [I-161] | < 10 nM | > 200 nM |
| Cn1c(=O)n(C2CCC(=O)NC2=O)c2cccc(C#CCCN3CCN(CC4CCC(n5cc(NC(=O)c6cnn7ccc(C8C[C@H]9C[C@@H]8CO9)nc67)c(C(F)F)n5)CC4)CC3)c21 (stereo partly drawn) [I-162] | < 10 nM | > 200 nM |
| Cn1c(=O)n(C2CCC(=O)NC2=O)c2cccc(N3CCN(CC4CCN(C[C@H]5CC[C@H](n6cc(NC(=O)c7cnn8ccc(N9C[C@H]%10C[C@@H]9CO%10)nc78)c(C(F)F)n6)CC5)CC4)CC3)c21 (stereo partly drawn) [I-163] | < 10 nM | > 200 nM |
| Cn1c(=O)n(C2CCC(=O)NC2=O)c2cccc(N3CCC(CN4CCN(C[C@H]5CC[C@H](n6cc(NC(=O)c7cnn8ccc(N9C[C@H]%10C[C@@H]9CO%10)nc78)c(C(F)F)n6)CC5)CC4)CC3)c21 (stereo partly drawn) [I-164] | < 10 nM | > 200 nM |
| Cn1c(=O)n(C2CCC(=O)NC2=O)c2cccc(N3CCC(OC4CCN(C[C@H]5CC[C@H](n6cc(NC(=O)c7cnn8ccc(N9C[C@H]%10C[C@@H]9CO%10)nc78)c(C(F)F)n6)CC5)CC4)CC3)c21 (stereo partly drawn) [I-165] | < 10 nM | > 200 nM |
| Cn1c(=O)n(C2CCC(=O)NC2=O)c2cccc(C#CCOC3CCN(C[C@H]4CC[C@H](n5cc(NC(=O)c6cnn7ccc(N8C[C@H]9C[C@@H]8CO9)nc67)c(C(F)(F)F)n5)CC4)CC3)c21 (stereo partly drawn) [I-166] | 10 to 100 nM | > 200 nM |
